Structures can show the parent of a compound that is named as a salt.
What was measured:
[1] = tested on: isolated living human hair follicles; experiment: observation of inhibition or damage of cultured hair follicles; format: cell-based; conditions: follicles cultured with test substance at 0.1mM or 1mM
Description: (§1) In accordance with the preferred method of culture, isolated hair follicles were maintained in 500µl of Williams E medium, containing the test substance (substituted DOPA) at a concentration of 1mM, at 37°C in an atmosphere of 5% CO₂ + 95% air in individual wells of a 24 multiwell dish (Corning), which permitted detailed observations of the colour and measurements to be made of individual hair follicles.
Groups of eight freshly isolated hair follicles were maintained in a Williams E medium under the conditions stated above. For a control group of follicles the medium contained no test substance. […]
(§2) The follicles were photographed at the start of the incubation period and again after incubation for two or four days. The growth and morphology of the follicles was monitored during the culture period.
Melanin formation by these follicles was assessed. […] The supernatant was removed, 200ul samples added to a 96 well plate and the melanin content then determined spectrophotometrically at 540nm. […] The protein content of each sample was also determined by the Folin & Lowry method, with the absorbance being read at 540nm. […] Results were expressed as ug melanin/mg soluble protein.

cultured follicles = experiment: melanin formation by cultured hair follicles, spectrophotometric at 540nm; format: cell-based, human; conditions: 12 cultured follicles per assay; control 1.11
Description: Melanin formation by these follicles was assessed. The procedure was based on that of Gardon and Gilchrest, 1989. For each assay 12 cultured follicles were placed in 500ul of 1M NaOH and incubated overnight at 4°C. The follicles were then homogenised and centrifuged at 14,000 rpm for 2 min. The supernatant was removed, 200ul samples added to a 96 well plate and the melanin content then determined spectrophotometrically at 540nm. A standard curve was also prepared from synthetic melanin dissolved in 1M NaOH. The protein content of each sample was also determined by the Folin & Lowry method, with the absorbance being read at 540nm. […] Results were expressed as ug melanin/mg soluble protein.

[2] = tested on: isolated living human hair follicles; experiment: in vitro test of darkening of hair on regrowth with isolated hair follicles in culture; format: cell-based
Description: The isolation of individual hair follicles and their culture will now be described.
The method of testing includes the important step of isolating hair follicles having an undamaged hair bulb from skin, preferably from human skin, by microdissection, but preferably without the enzymic pretreatment advocated by other workers in this field.
The critical step of separating the hair follicle with intact undamaged hair bulb from the subcutaneous fatty tissue in which it is situated accordingly involves severing the hair shaft of the follicle at a point below the epidermis or skin surface, so as to leave the hair bulb intact and undamaged while still bearing a portion of the hair shaft.
as §1
Hair shaft length measurements and colour changes, i.e. darkening, were made on these follicles, using a Nikon Diaphot inverted binocular photo microscope with eye piece measuring graticules, over seven days in culture.
Groups of eight freshly isolated hair follicles were maintained in a Williams E medium under the conditions stated above. For a control group of follicles the medium contained no test substance. For other groups of follicles the medium contained the test substance at 0.1mM concentration of 1mM concentration, In all cases the growth medium additionally contained L-glutamine (2mM), Penicillin (50 IU/ml), streptomycin (50 ug/ml), insulin (10 ug/ml) and hydrocortisone (10 ng/ml).
as §2

[3] = 0.1mM test substance in Williams E medium, after 48 hrs
[4] = 1mM test substance in Williams E medium, 96 hrs

Row | Compound | inhibit or damage the follicles [1] | µg Melanin/mg soluble protein (cultured follicles) | DARKENING OBSERVED [2, 3] | DARKENING OBSERVED [2, 4]
1 | CC(N)(Cc1ccc(O)c(O)c1)C(=O)O (centres unmarked) [2-methyl-3-(3,4-dihydroxyphenyl)alanine, 2-methyl-3-(3,4-dihydroxyphenylalanine)] | did not appear to inhibit or damage the follicles | 8.36 µg Melanin/mg soluble protein | YES (after 48 hrs) | 
2 | CC(=O)Oc1ccc(C[C@H](N)C(=O)O)cc1OC(C)=O [3,4-diacetyl-L-DOPA hydrochloride] |  |  |  | YES (96 hrs)
3 | NC(C(=O)O)C(O)c1ccc(O)c(O)c1 (centres unmarked) [Dihydroxyphenylserine, 3,4-dihydroxyphenylserine] | did not appear to inhibit or damage the follicles | 6.31 µg Melanin/mg soluble protein | YES (after 48 hrs) | 
4 | COC(=O)[C@@H](N)Cc1ccc(OC(C)=O)c(OC(C)=O)c1 [methyl-3,4-diacetyl-L-DOPA hydrochloride] |  |  |  | YES (96 hrs)
